Columns and labels:
[1] = The drug is tested on Bacteroides sp. WH2 strain: WH2 for biotransformation. The drug concentrations were measured before and after a 12-h incubation by liquid-chromatography-coupled mass spectrometry (LC–MS); conditions: bacteroides sp. wh2, 12 h, 2 µM
[2] = The drug is tested on Providencia stuartii strain: ATCC25827 for biotransformation. The drug concentrations were measured before and after a 12-h incubation by liquid-chromatography-coupled mass spectrometry (LC–MS); conditions: 2 µM
[3] = The drug is tested on Ruminococcus gnavus strain: ATCC29149 for biotransformation. The drug concentrations were measured before and after a 12-h incubation by liquid-chromatography-coupled mass spectrometry (LC–MS); conditions: mediterraneibacter gnavus, 2 µM
[4] = bacteroides thetaiotaomicron, 12 h, 2 µM
Description: The drug is tested on Bacteroides thetaiotaomicron strain: 3731 for biotransformation. The drug concentrations were measured before and after a 12-h incubation by liquid-chromatography-coupled mass spectrometry (LC–MS)

[5] = enterocloster bolteae, 12 h, 2 µM
Description: The drug is tested on Clostridium bolteae strain: ATCCBAA-613 for biotransformation. The drug concentrations were measured before and after a 12-h incubation by liquid-chromatography-coupled mass spectrometry (LC–MS)

[6] = The drug is tested on Eubacterium ventriosum strain: ATCC27560 for biotransformation. The drug concentrations were measured before and after a 12-h incubation by liquid-chromatography-coupled mass spectrometry (LC–MS); format: ADME; set-up: dose 2 uM, timepoint 0 vs 12 hours; conditions: 2 µM
[7] = bacteroides fragilis, 12 h, 2 µM
Description: The drug is tested on Bacteroides fragilis strain: 3397 (T10) for biotransformation. The drug concentrations were measured before and after a 12-h incubation by liquid-chromatography-coupled mass spectrometry (LC–MS)

[8] = The drug is tested on Bifidobacterium longum subsp. Infantis strain: CCUG52486 for biotransformation. The drug concentrations were measured before and after a 12-h incubation by liquid-chromatography-coupled mass spectrometry (LC–MS); conditions: 2 µM
[9] = The drug is tested on Bacteroides fragilis strain: ATCC43859 for biotransformation. The drug concentrations were measured before and after a 12-h incubation by liquid-chromatography-coupled mass spectrometry (LC–MS); conditions: 2 µM
[10] = The drug is tested on Blautia hansenii strain: DSM20583 for biotransformation. The drug concentrations were measured before and after a 12-h incubation by liquid-chromatography-coupled mass spectrometry (LC–MS); conditions: 2 µM
[11] = bacteroides intestinalis, 12 h, 2 µM
Description: The drug is tested on Bacteroides intestinalis strain: DSM17393 for biotransformation. The drug concentrations were measured before and after a 12-h incubation by liquid-chromatography-coupled mass spectrometry (LC–MS)

[12] = The drug is tested on Clostridium symbiosum strain: ATCC14940 for biotransformation. The drug concentrations were measured before and after a 12-h incubation by liquid-chromatography-coupled mass spectrometry (LC–MS); conditions: 2 µM
[13] = The drug is tested on Bacteroides xylanisolvens strain: DSM18836 for biotransformation. The drug concentrations were measured before and after a 12-h incubation by liquid-chromatography-coupled mass spectrometry (LC–MS); conditions: 2 µM
[14] = The drug is tested on Collinsella intestinalis strain: DSM13280 for biotransformation. The drug concentrations were measured before and after a 12-h incubation by liquid-chromatography-coupled mass spectrometry (LC–MS); conditions: 2 µM
[15] = bacteroides fragilis, 12 h, 2 µM; remark: listed apart in the source
Description: The drug is tested on Bacteroides fragilis strain: NCTC 9343 for biotransformation. The drug concentrations were measured before and after a 12-h incubation by liquid-chromatography-coupled mass spectrometry (LC–MS)

[16] = The drug is tested on Edwardsiella tarda strain: ATCC23685 for biotransformation. The drug concentrations were measured before and after a 12-h incubation by liquid-chromatography-coupled mass spectrometry (LC–MS); conditions: 2 µM
[17] = The drug is tested on Eubacterium hallii strain: DSM3353 for biotransformation. The drug concentrations were measured before and after a 12-h incubation by liquid-chromatography-coupled mass spectrometry (LC–MS); conditions: anaerobutyricum hallii, 2 µM
[18] = bifidobacterium adolescentis, 12 h, 2 µM
Description: The drug is tested on Bifidobacterium adolescentis strain: ATCC 15703 for biotransformation. The drug concentrations were measured before and after a 12-h incubation by liquid-chromatography-coupled mass spectrometry (LC–MS)

[19] = The drug is tested on Bacteroides pectinophilus strain: ATCC43243 for biotransformation. The drug concentrations were measured before and after a 12-h incubation by liquid-chromatography-coupled mass spectrometry (LC–MS); conditions: 2 µM
[20] = The drug is tested on Bifidobacterium breve strain: DSM20213 for biotransformation. The drug concentrations were measured before and after a 12-h incubation by liquid-chromatography-coupled mass spectrometry (LC–MS); conditions: 2 µM

Row | SMILES | Bacterial Biotransformation [1] | Bacterial Biotransformation [3] | Bacterial Biotransformation [4] | Bacterial Biotransformation [5] | Bacterial Biotransformation [6] | Bacterial Biotransformation [7] | Bacterial Biotransformation [8] | Bacterial Biotransformation [9] | Bacterial Biotransformation [10] | Bacterial Biotransformation [11] | Bacterial Biotransformation [12] | Bacterial Biotransformation [13] | Bacterial Biotransformation [14] | Bacterial Biotransformation [15] | Bacterial Biotransformation [16] | Bacterial Biotransformation [17] | Bacterial Biotransformation [18] | Bacterial Biotransformation [19] | Bacterial Biotransformation [20] | Bacterial Biotransformation [2]
1 | CCC(COC(=O)c1cc(OC)c(OC)c(OC)c1)(c1ccccc1)N(C)C.O=C(O)/C=C\C(=O)O (stereo unspecified) | Compound metabolized | Compound metabolized | Compound metabolized | Compound metabolized | Compound metabolized | Compound metabolized | Compound metabolized | Compound NOT metabolized | Compound metabolized | Compound metabolized | Compound metabolized | Compound metabolized | Compound metabolized | Compound metabolized | Compound metabolized | Compound metabolized | Compound metabolized | Compound metabolized | – | Compound NOT metabolized
2 | O=P(O)(O)O.c1ccc(CN(CC2=NCCN2)c2ccccc2)cc1 [ANTAZOLINE PHOSPHATE] | Compound NOT metabolized | Compound NOT metabolized | – | Compound NOT metabolized | Compound NOT metabolized | Compound NOT metabolized | Compound NOT metabolized | Compound NOT metabolized | Compound NOT metabolized | Compound NOT metabolized | Compound NOT metabolized | Compound NOT metabolized | Compound NOT metabolized | Compound NOT metabolized | Compound NOT metabolized | Compound NOT metabolized | Compound NOT metabolized | Compound NOT metabolized | – | Compound NOT metabolized
3 | O=C1CC2(CCCC2)CC(=O)N1CCCCN1CCN(c2ncccn2)CC1 [BUSPIRONE] | Compound NOT metabolized | Compound NOT metabolized | Compound NOT metabolized | Compound NOT metabolized | Compound NOT metabolized | Compound NOT metabolized | Compound NOT metabolized | Compound NOT metabolized | Compound NOT metabolized | Compound NOT metabolized | Compound NOT metabolized | Compound NOT metabolized | Compound NOT metabolized | Compound NOT metabolized | Compound NOT metabolized | Compound NOT metabolized | Compound NOT metabolized | Compound NOT metabolized | – | Compound NOT metabolized
4 | CCc1cccc2c3c([nH]c12)C(CC)(CC(=O)O)OCC3 (stereo unspecified) [ETODOLAC] | Compound NOT metabolized | Compound NOT metabolized | Compound NOT metabolized | Compound NOT metabolized | Compound NOT metabolized | Compound NOT metabolized | Compound NOT metabolized | Compound metabolized | Compound NOT metabolized | – | Compound NOT metabolized | Compound metabolized | Compound NOT metabolized | – | Compound NOT metabolized | Compound NOT metabolized | Compound NOT metabolized | Compound NOT metabolized | – | Compound NOT metabolized
5 | Cc1nc(-c2ccc(OCC(C)C)c(C#N)c2)sc1C(=O)O [FEBUXOSTAT] | Compound NOT metabolized | Compound NOT metabolized | Compound NOT metabolized | Compound NOT metabolized | Compound NOT metabolized | Compound metabolized | Compound NOT metabolized | Compound metabolized | Compound NOT metabolized | Compound NOT metabolized | Compound NOT metabolized | Compound NOT metabolized | Compound NOT metabolized | Compound NOT metabolized | Compound NOT metabolized | Compound NOT metabolized | Compound NOT metabolized | Compound NOT metabolized | – | Compound NOT metabolized

Second part, led by results:

Row | Bacterial Biotransformation [1] | Bacterial Biotransformation [3] | Bacterial Biotransformation [4] | Bacterial Biotransformation [5] | Bacterial Biotransformation [6] | Bacterial Biotransformation [7] | Bacterial Biotransformation [8] | Bacterial Biotransformation [9] | Bacterial Biotransformation [10] | Bacterial Biotransformation [11] | Bacterial Biotransformation [12] | Bacterial Biotransformation [13] | Bacterial Biotransformation [14] | Bacterial Biotransformation [15] | Bacterial Biotransformation [16] | Bacterial Biotransformation [17] | Bacterial Biotransformation [18] | Bacterial Biotransformation [19] | Bacterial Biotransformation [20] | SMILES | Bacterial Biotransformation [2]
6 | Compound NOT metabolized | Compound NOT metabolized | Compound NOT metabolized | Compound NOT metabolized | Compound NOT metabolized | Compound NOT metabolized | Compound NOT metabolized | Compound NOT metabolized | Compound NOT metabolized | Compound NOT metabolized | Compound NOT metabolized | Compound NOT metabolized | Compound NOT metabolized | Compound NOT metabolized | Compound NOT metabolized | Compound NOT metabolized | Compound NOT metabolized | Compound NOT metabolized | Compound NOT metabolized | CCOc1ccc(NC(C)=O)cc1 [PHENACETIN] | –
7 | Compound NOT metabolized | Compound NOT metabolized | – | Compound NOT metabolized | Compound NOT metabolized | Compound NOT metabolized | Compound NOT metabolized | Compound NOT metabolized | Compound NOT metabolized | Compound NOT metabolized | Compound NOT metabolized | – | Compound NOT metabolized | Compound NOT metabolized | Compound NOT metabolized | Compound NOT metabolized | Compound NOT metabolized | Compound NOT metabolized | Compound NOT metabolized | OCCOCCN1CCN(C2=Nc3ccccc3Sc3ccccc32)CC1 [QUETIAPINE] | –
8 | Compound NOT metabolized | Compound NOT metabolized | Compound NOT metabolized | Compound NOT metabolized | Compound NOT metabolized | Compound NOT metabolized | Compound NOT metabolized | Compound NOT metabolized | Compound NOT metabolized | Compound NOT metabolized | Compound NOT metabolized | Compound NOT metabolized | Compound NOT metabolized | Compound NOT metabolized | Compound NOT metabolized | Compound NOT metabolized | Compound NOT metabolized | – | Compound NOT metabolized | CC[C@@]1(O)C(=O)OCc2c1cc1n(c2=O)Cc2cc3c(CN(C)C)c(O)ccc3nc2-1 [TOPOTECAN] | –
